{"source": "patent US20120196854A1", "about": "“PHARMACEUTICAL COMPOSITION COMPRISING AROMATIC HETEROCYCLIC COMPOUND” (Kyowa Hakko Kirin Co., Ltd., priority 2009, published 2012)", "test_system": "PGD2 production in mouse ear", "assay": "Inhibitory effect on PGD2 production in mouse ear caused by allergic reaction", "format": "in vivo", "details": "10 mg/kg orally, 1 hour before inducing antigen-antibody reaction; BALB/c mice", "method": "A test of PGD2 production in the mouse ear caused by allergic reaction was conducted according to the evaluation method of passive cutaneous anaphylaxis in the mouse ear by Inagaki et al. (Int.Arch.AllergyAppl. Immunol., 1988, 86 (3), 325-30) with some alteration. […]\nOne hour after the induction of antigen-antibody reaction, the mice were killed by cervical dislocation and the ears were cut off with scissors. […] The harvested pieces of ear tissue were immediately frozen in liquid nitrogen, and preserved at −80° C. until measurement of the quantity of PGD2.\nThe quantity of PGD2 was determined in the following manner. […]", "data": [{"smiles": "O=C(O)c1cc(-c2ccco2)nc2ccc3nn(-c4ccccc4)nc3c12", "note": "[Compound 133, 7-(furan-2-yl)-2-phenyl-2H-[1,2,3]triazolo[4,5-f]quinoline-9-carboxylic acid]", "values": [{"measurement": "inhibition of PGD2 production in mouse ear caused by allergic reaction", "result": 88, "unit": "%"}]}]}
